# Results taken from paper PMC10385824, “Antiproliferative and Tubulin-Destabilising Effects of 3-(Prop-1-en-2-yl)azetidin-2-Ones and Related Compounds in MCF-7 and MDA-MB-231 Breast Cancer Cells” (Pharmaceuticals, 2023).
# Read-outs that look alike come from different tables or passages of the source.
# How the values were obtained:
# HS 578T = assay: NCI-60 SRB screen, breast cancer; assay type: cell-based; conditions: Homo sapiens, 48 h
# HCT-2998 = assay: NCI-60 SRB screen, colon cancer; assay type: cell-based, human; conditions: Homo sapiens, 48 h
# MCF-7 = assay: cells; conditions: Homo sapiens, MCF7, 48 h
# SK-MEL-28 = assay: NCI-60 SRB screen, melanoma; assay type: cell-based, human; conditions: Homo sapiens
# HOP-62 = assay: NCI-60 SRB screen, non-small cell lung cancer; assay type: cell-based, human; conditions: Homo sapiens
# [1] = system: MCF-7 human breast cancer cells; assay: cells
# OVCAR-3 = assay: NCI-60 SRB screen, ovarian cancer; assay type: cell-based, human; conditions: Homo sapiens
# 786-0 = assay: NCI-60 SRB screen, renal cancer; assay type: cell-based, human; conditions: Homo sapiens
# [2] = system: NCI 60 human cancer cell line panel; assay: NCI 60 cell line screen (SRB), panel values; conditions: for CC50: read-out: Mean LC50; for IC (TGI (total growth inhibition)): read-out: Mean TGI
# MDA-MB-231/ATCC = assay: NCI-60 SRB screen, breast cancer; assay type: cell-based, human; conditions: Homo sapiens; for IC50: read-out: Antiproliferative Activity IC50
# NCI-H460 = assay: NCI-60 SRB screen, non-small cell lung cancer; assay type: cell-based, human; conditions: Homo sapiens
# ACHN = assay: NCI-60 SRB screen, renal cancer; assay type: cell-based, human; conditions: Homo sapiens, 48 h
# KM12 = assay: NCI-60 SRB screen, colon cancer; assay type: cell-based, human; conditions: Homo sapiens
# MALME-3M = assay: NCI-60 SRB screen, melanoma; assay type: cell-based, human; conditions: Homo sapiens, 48 h
# HCT-116 = assay: NCI-60 SRB screen, colon cancer; assay type: cell-based, human; conditions: Homo sapiens
# SK-OV-3 = assay: NCI-60 SRB screen, ovarian cancer; assay type: cell-based, human; conditions: Homo sapiens
# U251 = assay: NCI-60 SRB screen, CNS cancer; assay type: cell-based, human; conditions: Homo sapiens
# SK-MEL-5 = assay: NCI-60 SRB screen, melanoma; assay type: cell-based, human; conditions: Homo sapiens
# OVCAR-5 = assay: NCI-60 SRB screen, ovarian cancer; assay type: cell-based, human; conditions: Homo sapiens
# NCI-H226 = assay: NCI-60 SRB screen, non-small cell lung cancer; assay type: cell-based; conditions: Homo sapiens
# EKVX = assay: NCI-60 SRB screen, non-small cell lung cancer; assay type: cell-based, human; conditions: Homo sapiens, 48 h
# SF295 = assay: NCI-60 SRB screen, CNS cancer; assay type: cell-based, human; conditions: Homo sapiens
# MOLT-4 = assay: NCI-60 SRB screen, leukemia; assay type: cell-based, human; conditions: Homo sapiens
# NCI/ADR-RES = assay: NCI-60 SRB screen, ovarian cancer; assay type: cell-based, human; conditions: Homo sapiens, 48 h
# SW-620 = assay: NCI-60 SRB screen, colon cancer; assay type: cell-based, human; conditions: Homo sapiens
# MDA-MB-468 = assay: NCI-60 SRB screen, breast cancer; assay type: cell-based, human; conditions: Homo sapiens
# TK-10 = assay: NCI-60 SRB screen, renal cancer; assay type: cell-based, human; conditions: Homo sapiens
# SN12C = assay: NCI-60 SRB screen, renal cancer; assay type: cell-based, human; conditions: Homo sapiens, 48 h
# PC-3 = assay: NCI-60 SRB screen, prostate cancer; assay type: cell-based, human; conditions: Homo sapiens
# CAKI-1 = assay: NCI-60 SRB screen, renal cancer; assay type: cell-based, human; conditions: Homo sapiens
# NCI-H552 = assay: NCI-60 SRB screen, non-small cell lung cancer; assay type: cell-based, human; conditions: Homo sapiens, 48 h
# RPMI-8226 = assay: NCI-60 SRB screen, leukemia; assay type: cell-based, human; conditions: Homo sapiens
# [3] = MCF7, read-out: Antiproliferative Activity IC50
# [4] = Homo sapiens, 60 cell, read-out: Mean GI50, mean over all NCI 60 cell lines
# [5] = read-out: Mean GI50, mean over all NCI 60 cell lines
# [6] = five dose 0.01–100 µM, read-out: GI50
structure (smiles),measurement,setting,value
"C=CC=CC1C(=O)N(c2cc(OC)c(OC)c(OC)c2)C1c1ccc(OC)cc1 (centres unmarked) [11h, 3-(Buta-1,3-dienyl)-4-(4-methoxyphenyl)-1-(3,4,5-trimethoxyphenyl)azetidin-2-one]",GI50,HS 578T; Hs-578T,24.7 nM
same,GI50,HCT-2998,30 nM
same,GI50,MCF-7,33.5 nM
same,GI50,"SK-MEL-28; SK-MEL-28, 48 h",16000 nM
same,GI50,"HOP-62; HOP-62, 48 h",55.8 nM
same,IC50,[1]; [3],33 ± 5 nM
same,GI50,"OVCAR-3; OVCAR-3, 48 h",25.2 nM
same,GI50,"786-0; 786-0, 48 h",23.1 nM
same,GI50,[2]; [4],< 91.2 nM
same,CC50,"[2]; Homo sapiens, 60 cell",77600 nM
same,IC (TGI (total growth inhibition)),"[2]; Homo sapiens, 60 cell",8910 nM
same,GI50,[2]; [5],58.9 nM
same,GI50,"MDA-MB-231/ATCC; MDA-MB-231, 48 h",29.6 nM
same,IC50,"MDA-MB-231/ATCC; MDA-MB-231, 48 h",31.1 nM
same,GI50,"NCI-H460; NCI-H460, 48 h",33.2 nM
same,GI50,ACHN,60.7 nM
same,GI50,"KM12; KM12, 48 h",30.4 nM
same,GI50,MALME-3M; Malme-3M,> 100000 nM
same,GI50,"HCT-116; HCT-116, 48 h",26.4 nM
same,GI50,"SK-OV-3; SK-OV-3, 48 h",37.3 nM
same,GI50,"U251; U-251, 48 h",32.2 nM
same,GI50,"SK-MEL-5; SK-MEL-5, 48 h",26 nM
same,GI50,"OVCAR-5; OVCAR-5, 48 h",94.8 nM
same,GI50,"NCI-H226; NCI-H226, 48 h",76.8 nM
same,GI50,EKVX,83.4 nM
same,GI50,"SF295; SF-295, 48 h",30.9 nM
same,GI50,"MOLT-4; MOLT-4, 48 h",36.9 nM
same,GI50,NCI/ADR-RES,17.3 nM
same,GI50,"SW-620; SW-620, 48 h",43.8 nM
same,GI50,"MDA-MB-468; MDA-MB-468, 48 h",23.3 nM
same,GI50,"TK-10; TK-10, 48 h",61.7 nM
same,GI50,SN12C,50.8 nM
same,GI50,"PC-3; PC-3, 48 h",40.4 nM
same,GI50,"CAKI-1; CAKI-1, 48 h",58.9 nM
same,GI50,NCI-H552,15.1 nM
same,GI50,"RPMI-8226; RPMI-8226, 48 h",38.4 nM
"C=C/C=C/C1C(=O)N(c2cc(OC)c(OC)c(OC)c2)C1c1ccc(OC)c(N)c1 (centres unmarked) [11r, (E)-4-(3-Amino-4-methoxyphenyl)-3-(buta-1,3-dien-1-yl)-1-(3,4,5-trimethoxyphenyl)azetidin-2-one]",GI50,HS 578T; Hs-578T,53 nM
same,GI50,HCT-2998,27 nM
same,GI50,MCF-7,33.6 nM
same,GI50,"SK-MEL-28; SK-MEL-28, 48 h",> 100000 nM
same,GI50,"HOP-62; HOP-62, 48 h",52.5 nM
same,IC50,[1]; [3],36 ± 5 nM
same,GI50,"OVCAR-3; OVCAR-3, 48 h",26.2 nM
same,GI50,"786-0; 786-0, 48 h",32.7 nM
same,GI50,[2]; [4],< 91.2 nM
same,CC50,"[2]; Homo sapiens, 60 cell",77600 nM
same,IC (TGI (total growth inhibition)),"[2]; Homo sapiens, 60 cell",38000 nM
same,GI50,[2]; [5],91.2 nM
same,GI50,"MDA-MB-231/ATCC; MDA-MB-231, 48 h",31.5 nM
same,IC50,"MDA-MB-231/ATCC; MDA-MB-231, 48 h",33.7 nM
same,GI50,"NCI-H460; NCI-H460, 48 h",33.2 nM
same,GI50,ACHN,61.4 nM
same,GI50,"KM12; KM12, 48 h",33.1 nM
same,GI50,"HCT-116; HCT-116, 48 h",27.2 nM
same,GI50,"SK-OV-3; SK-OV-3, 48 h",35.6 nM
same,GI50,"U251; U-251, 48 h",35.7 nM
same,GI50,"SK-MEL-5; SK-MEL-5, 48 h",22.2 nM
same,GI50,"OVCAR-5; OVCAR-5, 48 h",93.7 nM
same,GI50,"NCI-H226; NCI-H226, 48 h",56.4 nM
same,GI50,EKVX,88 nM
same,GI50,"SF295; SF-295, 48 h",30.1 nM
same,GI50,"MOLT-4; MOLT-4, 48 h",39.6 nM
same,GI50,NCI/ADR-RES,19.6 nM
same,GI50,"SW-620; SW-620, 48 h",42.9 nM
same,GI50,"MDA-MB-468; MDA-MB-468, 48 h",26.7 nM
same,GI50,"TK-10; TK-10, 48 h",74.8 nM
same,GI50,SN12C,59.1 nM
same,GI50,"PC-3; PC-3, 48 h",39.2 nM
same,GI50,"CAKI-1; CAKI-1, 48 h",63.1 nM
same,GI50,NCI-H552,16.9 nM
same,GI50,"RPMI-8226; RPMI-8226, 48 h",34.8 nM
"C=CCC1C(=O)N(c2cc(OC)c(OC)c(OC)c2)C1c1ccc(OC)c(O)c1 (centres unmarked) [10p, 4-(3-Hydroxy-4-methoxyphenyl)-1-(3,4,5-trimethoxyphenyl)-3-allylazetidin-2-one]",GI50,"HS 578T; HS 578T, five dose 0.01–100 µM, read-out: GI50",51.7 nM
same,GI50,"HCT-2998; HCT-2998, five dose 0.01–100 µM, read-out: GI50",29.9 nM
same,GI50,MCF-7,35.3 nM
same,GI50,"SK-MEL-28; SK-MEL-28, five dose 0.01–100 µM, 48 h, read-out: GI50",76200 nM
same,GI50,"HOP-62; HOP-62, five dose 0.01–100 µM, 48 h, read-out: GI50",61 nM
same,IC50,"[1]; MCF7, read-out: Antiproliferative Activity IC50, MCF-7, eight concentrations 0.001–50 μM, mean ± SEM, Table 3",31 ± 2 nM
same,GI50,"OVCAR-3; OVCAR-3, five dose 0.01–100 µM, 48 h, read-out: GI50",23.3 nM
same,GI50,"786-0; 786-0, five dose 0.01–100 µM, 48 h, read-out: GI50",25.5 nM
same,GI50,[2]; [4],< 91.2 nM
same,CC50,"[2]; Homo sapiens, 60 cell",93300 nM
same,IC (TGI (total growth inhibition)),"[2]; Homo sapiens, 60 cell",35500 nM
same,GI50,[2]; [5],61.7 nM
same,GI50,"MDA-MB-231/ATCC; MDA-MB-231/ATCC, five dose 0.01–100 µM, 48 h, read-out: GI50",24 nM
same,IC50,"MDA-MB-231/ATCC; MDA-MB-231, obtained from NCI, five concentrations 0.01–100 μM, 48 h",27.4 nM
same,GI50,"NCI-H460; NCI-H460, five dose 0.01–100 µM, 48 h, read-out: GI50",32 nM
same,GI50,ACHN; [6],53.2 nM
same,GI50,"KM12; KM12, five dose 0.01–100 µM, 48 h, read-out: GI50",22.4 nM
same,GI50,"MALME-3M; MALME-3M, five dose 0.01–100 µM, read-out: GI50",30.6 nM
same,GI50,"HCT-116; HCT-116, five dose 0.01–100 µM, 48 h, read-out: GI50",24.9 nM
same,GI50,"SK-OV-3; SK-OV-3, five dose 0.01–100 µM, 48 h, read-out: GI50",36.6 nM
same,GI50,"U251; U-251, U251, five dose 0.01–100 µM, 48 h, read-out: GI50",31.7 nM
same,GI50,"SK-MEL-5; SK-MEL-5, five dose 0.01–100 µM, 48 h, read-out: GI50",24.9 nM
same,GI50,"OVCAR-5; OVCAR-5, five dose 0.01–100 µM, 48 h, read-out: GI50",61.8 nM
same,GI50,"NCI-H226; NCI-H226, five dose 0.01–100 µM, 48 h, read-out: GI50",56 nM
same,GI50,EKVX; [6],76.4 nM
same,GI50,"SF295; SF-295, SF295, five dose 0.01–100 µM, 48 h, read-out: GI50",29.1 nM
same,GI50,"MOLT-4; MOLT-4, five dose 0.01–100 µM, 48 h, read-out: GI50",40.8 nM
same,GI50,NCI/ADR-RES; [6],20.6 nM
same,GI50,"SW-620; SW-620, five dose 0.01–100 µM, 48 h, read-out: GI50",42.2 nM
same,GI50,"MDA-MB-468; MDA-MB-468, five dose 0.01–100 µM, 48 h, read-out: GI50",25 nM
same,GI50,"TK-10; TK-10, five dose 0.01–100 µM, 48 h, read-out: GI50",80.2 nM
same,GI50,SN12C; [6],29.8 nM
same,GI50,"PC-3; PC-3, five dose 0.01–100 µM, 48 h, read-out: GI50",40.3 nM
same,GI50,"CAKI-1; CAKI-1, five dose 0.01–100 µM, 48 h, read-out: GI50",44 nM
same,GI50,"NCI-H552; NCI-H552, five dose 0.01–100 µM, read-out: GI50",15.1 nM
same,GI50,"RPMI-8226; RPMI-8226, five dose 0.01–100 µM, 48 h, read-out: GI50",40.6 nM
